Converted amounts (≈) assume the structure as drawn.
Target: T1, angiotensin-converting enzyme (ACE)
T1 construct: enzyme of the commercial ACE-kit WST (Dojin / Dojindo)
Experiment: ACE-kit WST, microplate absorbance
Type: biochemical
Conditions: measured on HPLC fraction Fr. B isolated from fermented kelp extract, identified as D-Trp; pH and temperature not given

IC50: 73 µg/mL (≈ 357 µM)
Compound: N[C@H](Cc1c[nH]c2ccccc12)C(=O)O [D-Trp]

Reference: publication PMC8470367, “Antihypertensive and Probiotic Effects of Hidakakombu (Saccharina angustata) Fermented by Lacticaseibacillus casei 001” (Foods, 2021)
